Patent publication EP4603105A1, “PHARMACEUTICAL COMPOSITION CONTAINING CYCLIC COMPOUND HAVING SELECTIVE KRAS INHIBITORY EFFECT AGAINST HRAS AND NRAS” (CHUGAI SEIYAKU KABUSHIKI KAISHA, priority 2022, dated 2024)
Like-named read-outs stand apart in the source and are kept apart here. *1 amine or outer side, *2 acyl side, *3 side chain or, on linkers, in order; H or OH if unused. Where a SMILES comes first, the peptide text is derived from it. Bridges are numbered along the chain shown (N, C = ends). [ ]: non-standard residue; d: D form. The star is where a group is joined. hPhe(3-Cl-4-CF3) = N[C@@H](CCc1ccc(C(F)(F)F)c(Cl)c1)C(=O)O; X33 = O=C([C@H](Cc1ccc(C(F)(F)F)cc1)N(CC1CC1)[*:1])[*:2]; NPrPhe(4-CF3) = CCCN[C@@H](Cc1ccc(C(F)(F)F)cc1)C(=O)O; X45 = CCCN([C@@H](CC1CCC(F)(F)CC1)C(=O)[*:2])[*:1]; Pip(4,4-F2) = O=C(O)[C@@H]1CC(F)(F)CCN1; NMeGly(cPent) = CN[C@H](C(=O)O)C1CCCC1; NMeD = CN[C@@H](CC(=O)O)C(=O)O; NMeL = CN[C@@H](CC(C)C)C(=O)O; Morpholide = C1CN(*)CCO1; NMeA = CN[C@@H](C)C(=O)O; Ac5c = NC1(C(=O)O)CCCC1; Aze = O=C(O)[C@@H]1CCN1; Ac4c = NC1(C(=O)O)CCC1; Sar = CNCC(=O)O

Key:
[1] = target: GDP-bound NRAS wild-type protein (Homo sapiens, UniProt P01111); assay: Binding to NRAS by surface plasmon resonance (SPR), KD and KD ratio to KRAS
How it was run: (§1)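 Measured at 30°C: SPR with GDP-loaded, E. coli-expressed biotin-Avi RAS captured (~100–300 RU), ascending 75 s compound injections, HBS pH 7.4 with GDP, MgCl2, 4% DMSO. KD from 1:1 fit.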

HRAS wild-type protein = HRAS wild-type protein (Homo sapiens, UniProt P01112); assay: Binding to HRAS by surface plasmon resonance (SPR), KD and KD ratio to KRAS
How it was run: as §1

[2] = test system: human lung cancer strain NCI-H441; assay type: cell-based
How it was run: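 Signal came from […] measured per well once the reagent was added. Beforehand, cells were cultured at 37°C and 5% carbon dioxide on a compound series serially diluted in dimethyl sulfoxide.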

[3] = ratio of the KD value with respect to GDP-bound NRAS wild-type protein to the KD value with respect to KRAS
[4] = ratio of the KD value with respect to HRAS wild-type protein to the KD value with respect to KRAS
[5] = ratio of KD for GDP-bound NRAS wild-type protein to KD for KRAS
[6] = ratio of KD for HRAS wild-type protein to KD for KRAS

HRAS wild-type protein, sequence (P01112 whole entry): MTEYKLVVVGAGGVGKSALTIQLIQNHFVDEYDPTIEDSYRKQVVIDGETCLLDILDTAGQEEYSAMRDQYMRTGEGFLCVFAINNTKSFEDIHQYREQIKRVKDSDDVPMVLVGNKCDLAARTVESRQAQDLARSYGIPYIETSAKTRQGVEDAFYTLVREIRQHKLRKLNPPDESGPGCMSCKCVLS
GDP-bound NRAS wild-type protein, sequence (P01111 whole entry): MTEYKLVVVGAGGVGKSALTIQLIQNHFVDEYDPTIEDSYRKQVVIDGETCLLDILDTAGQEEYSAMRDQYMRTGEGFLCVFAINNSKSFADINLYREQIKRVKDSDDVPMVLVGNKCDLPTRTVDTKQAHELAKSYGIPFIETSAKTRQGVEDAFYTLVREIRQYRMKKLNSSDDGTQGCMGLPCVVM

Row | Compound | IC50 [2] | NRAS /KRAS [1, 3] | HRAS /KRAS (HRAS wild-type protein; [4]) | NRAS /KRAS [1, 5] | HRAS /KRAS (HRAS wild-type protein; [6]) | IC50 ([2]; NCI-H441 cells, 4 days, CellTiter-Glo, read-out: NCl-H441 IC50)
1 | CCCN1C(=O)CN(C)C(=O)CN(C)C(=O)[C@H]([C@@H](C)CC)NC(=O)[C@H](CC(C)C)N(C)C(=O)C[C@@H](C(=O)N2CCOCC2)N(C)C(=O)[C@H](C2CCCC2)N(C)C(=O)C2(CCCC2)NC(=O)[C@@H]2CC(F)(F)CCN2C(=O)[C@H](CCc2ccc(C(F)(F)F)c(Cl)c2)NC(=O)CN(C)C(=O)[C@@H]1Cc1ccc(C(F)(F)F)cc1 [PP0264] ([NMeL]I[Sar][Sar][NPrPhe(4-CF3)][Sar][hPhe(3-Cl-4-CF3)][Pip(4,4-F2)][Ac5c][NMeGly(cPent)][NMeD]-Morpholide; lactam N-11) | 16.4 nM |  |  | B (a compound having 3 or more and less than 10 is denoted as B) | C (A compound having a KD ratio of 0.1 or more and less than 3 is denoted as C) | 
2 | CCOC[C@H]1C(=O)N[C@@H]([C@@H](C)CC)C(=O)N(C)CC(=O)N(C)[C@H]2C/C=C\CCN(C2=O)[C@@H](Cc2ccc(C)c(F)c2)C(=O)N(C)CC(=O)N[C@@H](CCc2ccc(C(F)(F)F)c(OC)c2)C(=O)N2C[C@@H](C)C[C@H]2C(=O)NC2(CC(C)(C)C2)C(=O)N(C)[C@@H](C2CCCC2)C(=O)N(C)[C@H](C(=O)N(C)CC)CC(=O)N1C [PP2698] |  |  |  | A (a compound having 10 or more and less than 20 is denoted as A) | A (a compound having 10 or more and less than 20 is denoted as A) | 30.4 nM
3 | CCOC[C@H]1C(=O)N[C@@H]([C@@H](C)CC)C(=O)N2CCC[C@H]2C(=O)N(C)[C@H]2C/C=C\CCN(C2=O)[C@@H](Cc2ccc(C(F)(F)F)cc2)C(=O)N(C)CC(=O)N[C@@H](CCc2ccc(C(F)(F)F)c(OC)c2)C(=O)N2C[C@H](OCC)C[C@H]2C(=O)N(C)C2(CCC2)C(=O)N(C)[C@@H](C(CC)CC)C(=O)N(C)[C@H](C(=O)N(C)C)CC(=O)N1C [PP2319] | 9.6 nM | AA (a compound having 20 or more is denoted as AA) | A (a compound having 10 or more and less than 20 is denoted as A) |  |  | 

Further lines, with some results ahead:

Row | IC50 [2] | Compound | NRAS /KRAS [1, 3] | HRAS /KRAS (HRAS wild-type protein; [4]) | NRAS /KRAS [1, 5] | HRAS /KRAS (HRAS wild-type protein; [6]) | IC50 ([2]; NCI-H441 cells, 4 days, CellTiter-Glo, read-out: NCl-H441 IC50)
4 | 2.7 nM | CCCN1C(=O)CN(C)C(=O)CNC(=O)[C@H]([C@@H](C)CC)NC(=O)[C@H](CC(C)C)N(C)C(=O)C[C@@H](C(=O)N2CCOCC2)N(C)C(=O)[C@H](C2CCCC2)N(C)C(=O)C2(CCC2)NC(=O)[C@@H]2CCCN2C(=O)[C@H](CCc2ccc(C(F)(F)F)c(Cl)c2)NC(=O)CN(C)C(=O)[C@@H]1Cc1ccc(C(F)(F)F)cc1 [PP0393] ([NMeL]IG[Sar][NPrPhe(4-CF3)][Sar][hPhe(3-Cl-4-CF3)]P[Ac4c][NMeGly(cPent)][NMeD]-Morpholide; lactam N-11) | B (a compound having 3 or more and less than 10 is denoted as B) | B (a compound having 3 or more and less than 10 is denoted as B) |  |  | 
5 | 9 nM | CC[C@H](C)[C@@H]1NC(=O)[C@H](CC(C)C)N(C)C(=O)C[C@@H](C(=O)N2CCOCC2)N(C)C(=O)[C@H](C2CCCC2)N(C)C(=O)C2(CCCC2)NC(=O)[C@@H]2CCCN2C(=O)[C@H](CCc2ccc(C(F)(F)F)c(Cl)c2)NC(=O)CN(C)C(=O)[C@H](Cc2ccc(C(F)(F)F)cc2)N(CC2CC2)C(=O)[C@@H]2CCN2C(=O)[C@H](C)N(C)C1=O [PP0108] ([NMeL]I[NMeA][Aze][X33][Sar][hPhe(3-Cl-4-CF3)]P[Ac5c][NMeGly(cPent)][NMeD]-Morpholide; lactam N-11) |  |  | C (A compound having a KD ratio of 0.1 or more and less than 3 is denoted as C) | C (A compound having a KD ratio of 0.1 or more and less than 3 is denoted as C) | 
6 | 6.6 nM | CCCN1C(=O)CN(C)C(=O)CN(C)C(=O)[C@H]([C@@H](C)CC)NC(=O)[C@H](CC(C)C)N(C)C(=O)C[C@@H](C(=O)N2CCOCC2)N(C)C(=O)[C@H](C2CCCC2)N(C)C(=O)C2(CCCC2)NC(=O)[C@@H]2CCCN2C(=O)[C@H](CCc2ccc(C(F)(F)F)c(Cl)c2)NC(=O)CN(C)C(=O)[C@@H]1CC1CCC(F)(F)CC1 [PP0526] ([NMeL]I[Sar][Sar][X45][Sar][hPhe(3-Cl-4-CF3)]P[Ac5c][NMeGly(cPent)][NMeD]-Morpholide; lactam N-11) | B (a compound having 3 or more and less than 10 is denoted as B) | C (A compound having a KD ratio of 0.1 or more and less than 3 is denoted as C) |  |  | 
